How the values were obtained:
Rotavirus [1] = assay: Inhibitory activity against human Wa Rotavirus strain; type: functional, organism-based
Rotavirus [2] = assay: Inhibitory activity against bovine NCDV Rotavirus strain; type: functional, organism-based

IC50 (Rotavirus [1])	IC50 (Rotavirus [2])	SMILES
> 25 mM	> 25 mM	CCC(SC[C@@H]1O[C@@H](OC)[C@@H](O)[C@@H](O)[C@@H]1O)C(=O)O (stereo partly specified)
> 25 mM	> 25 mM	CO[C@@H]1O[C@@H](CSC(CCO)C(=O)O)[C@@H](O)[C@H](O)[C@@H]1O (stereo partly specified)
> 25 mM	> 25 mM	CO[C@@H]1O[C@@H](CSC(C(=O)O)c2ccccc2)[C@@H](O)[C@H](O)[C@@H]1O (stereo partly specified)
> 25 mM	25 mM	CCC(SC[C@@H]1O[C@@H](OC)[C@@H](O)[C@@H](O)[C@H]1O)C(=O)O (stereo partly specified)
> 25 mM	> 25 mM	CO[C@@H]1O[C@@H](CSC(C(=O)O)c2ccccc2)[C@H](O)[C@H](O)[C@@H]1O (stereo partly specified)
> 25 mM	> 25 mM	CO[C@@H]1O[C@@H](CSC(CCO)C(=O)O)[C@H](O)[C@H](O)[C@@H]1O (stereo partly specified)
> 25 mM	–	COC1OC(CSC2(C(=O)O)CC(O)C(NC(C)=O)C([C@H](O)[C@H](O)CO)O2)C(O)C(O)C1O (stereo partly specified)
> 25 mM	> 25 mM	COC1OC(CSC(C)C(=O)O)C(O)C(O)C1O (stereo unspecified)
6.25 mM	6.25 mM	CCC(SC[C@@H]1O[C@@H](O[C@H]2[C@H](O)[C@H](O)[C@H](OC)O[C@H]2CO)[C@@H](O)[C@@H](O)[C@H]1O)C(=O)O (stereo partly specified)
25 mM	12.5 mM	CO[C@@H]1O[C@@H](CO)[C@@H](O[C@@H]2O[C@@H](CSC(C(=O)O)c3ccccc3)[C@H](O)[C@H](O)[C@@H]2O)[C@H](O)[C@@H]1O (stereo partly specified)
6.25 mM	12.5 mM	CO[C@@H]1O[C@@H](CO)[C@@H](O[C@@H]2O[C@@H](CSC(C)C(=O)O)[C@H](O)[C@H](O)[C@@H]2O)[C@H](O)[C@@H]1O (stereo partly specified)
